The text below walks through data of patent publication US7960408B2, “Quinolinyl and benzothiazolyl modulators” (Amgen Inc., priority 2000, dated 2011).

What is called IC50 is the concentration that inhibits the measured activity by half. Lower therefore signals higher potency.

The target of the assay is T1, PPARγ (Homo sapiens, UniProt P37231).
T1 construct: made in house
T1 sequence (P37231 1-505): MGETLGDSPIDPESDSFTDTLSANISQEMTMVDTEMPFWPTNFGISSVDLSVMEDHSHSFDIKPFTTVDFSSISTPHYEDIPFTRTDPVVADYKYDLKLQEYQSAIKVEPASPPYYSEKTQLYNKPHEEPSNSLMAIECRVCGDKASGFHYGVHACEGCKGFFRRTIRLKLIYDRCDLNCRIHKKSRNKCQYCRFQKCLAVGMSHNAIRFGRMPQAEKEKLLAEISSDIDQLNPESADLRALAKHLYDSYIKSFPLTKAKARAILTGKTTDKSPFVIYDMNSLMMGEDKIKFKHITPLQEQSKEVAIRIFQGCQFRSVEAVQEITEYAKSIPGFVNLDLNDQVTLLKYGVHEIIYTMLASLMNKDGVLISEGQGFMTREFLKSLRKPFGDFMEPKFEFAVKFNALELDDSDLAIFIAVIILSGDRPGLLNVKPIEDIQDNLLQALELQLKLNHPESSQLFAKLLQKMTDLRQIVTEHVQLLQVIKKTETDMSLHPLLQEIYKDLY
Put plainly: PPARγ ligand binding assay utilizing [3H]-BRL 49653 as the radioligand. The conditions noted are these: concentration required to reduce by 50% the specific binding of [3H]-BRL 49653. The source says: The compounds of the present invention can be evaluated for modulation of the PPARγ receptor using assays such as those described in Jiang, et al., Nature 391:82-86 (1998), Ricote, et al., Nature 391:79-82 (1998) and Lehmann, et al., J. Biol. Chem. 270(12): 12953-12956 (1995). Alternatively, the compounds can be evaluated for their ability to displace radiolabeled BRL 49653 from a PPARγ-GST fusion protein as follows:
PPARγ-GST fusion protein (prepared according to standard procedures), [^3H]—BRL 49653 having 50 Ci/mmol specific activity, Polyfiltronics Unifilter 350 filtration plate and glutathione-Sepharose® beads (from Pharmacia: washed twice with 10× binding buffer in which BSA and DTI can be left out).
Binding buffer (10 mM Tris-HCl, pH 8.0, 50 mM KCI, 10 mM DTT, 0.02% BSA and 0.01% NP-40) is added in 80-μL amounts to the wells of the filtration plate. The test compound is then added in 10 μL of DMSO. The PPARγ-GST fusion protein and radiolabeled BRL compound are premixed in binding buffer containing 10 mM DTT and added in 10-μL amounts to the wells of the plate to provide final concentrations of 1 μg/well of PPARγ-GST fusion protein and 10 nM [^3H]—BRL 49653 compound. The plate is incubated for 15 min. Glutathione-agarose bead is added in 50 μL of binding buffer, and the plate is vigorously shaken for one hour. The plate is washed four times with 200 μL/well of binding buffer (without BSA and DTT). The bottom of the plate is sealed and 200 μL/well of scintillation cocktail is added. The top of the plate is then sealed and the radioactivity is determined.
IC50 values are defined as the concentration of test compounds required to reduce by 50% the specific binding of [^3H]—BRL 49653 and are represented by (+) <30 μM; (++) <10 μM; (+++) <1 μM.
For `O=S(=O)(Nc1cc(Cl)cc(Oc2nc3cc(Cl)ccc3s2)c1)c1ccc(Cl)cc1Cl` [Compound 284, 2,4-Dichloro-N-[3-chloro-5-(5-chloro-benzothiazol-2-yloxy)-phenyl]-benzenesulfonamide], the IC50 is below 1000 nM.

`O=S(=O)(Nc1cc(Cl)c(Oc2nc3c(Cl)cccc3s2)c(Cl)c1)c1ccc(C(F)(F)F)cc1Cl` [Compound 424, 2-Chloro-N-[3,5-dichloro-4-(4-chloro-benzothiazol-2-yloxy)-phenyl]-4-trifluoromethyl-benzenesulfonamide] registered an IC50 of 1000 to 10000 nM.

Compound `COC(=O)c1ccc2ncc(Oc3c(Cl)cc(NS(=O)(=O)c4ccc(Cl)cc4Cl)cc3Cl)cc2c1` [Compound 45, 3-[2,6-Dichloro-4-(2,4-dichloro-benzenesulfonylamino)-phenoxy]-quinoline-6-carboxylic acid methyl ester] yielded a half-inhibitory concentration (IC50) below 1000 nM. In the case of “2,4-Dichloro-N-[3,5-dichloro-4-(6-methyl-quinoln-3-yloxy)-phenyl]-5-methyl-benzenesulfonamide [Compound 49]” it was below 1000 nM; in that of `Cc1cc(S(=O)(=O)Nc2cc(Cl)cc(Oc3nc4cc(Cl)ccc4s3)c2)c(Cl)cc1Cl` [Compound 285, 2,4-Dichloro-N-[3-chloro-5-(5-chloro-benzothiazol-2-yloxy)-phenyl]-5-methyl-benzenesulfonamide], below 1000 nM; in that of `O=S(=O)(Nc1cc(Cl)cc(Oc2nc3ccc(F)cc3s2)c1)c1ccc(Cl)cc1Cl` [Compound 305, 2,4-Dichloro-N-[3-chloro-5-(6-fluoro-benzothiazol-2-yloxy)-phenyl]-benzenesulfonamide], below 1000 nM. In the case of `CS(=O)(=O)Nc1ccc2sc(Oc3c(Cl)cc(NS(=O)(=O)c4ccc(C(F)(F)F)cc4Cl)cc3Cl)nc2c1` [Compound 457, 2-Chloro-N-[3,5-dichloro-4-(5-methanesulfonylamino-benzothiazol-2-yloxy)-phenyl]-4-trifluoromethyl-benzenesulfonamide] it was below 1000 nM; in that of `O=S(=O)(Nc1cc(Cl)cc(Oc2nc3c(Cl)cccc3s2)c1)c1ccc(Cl)cc1Cl` [Compound 291, 2,4-Dichloro-N-[3-chloro-5-(4-chloro-benzothiazol-2-yloxy)-phenyl]-benzenesulfonamide], 10000 to 30000 nM; in that of `O=[N+]([O-])c1ccc2sc(Oc3c(Cl)cc(NS(=O)(=O)c4ccc(C(F)(F)F)cc4Cl)cc3Cl)nc2c1` [Compound 455, 2-Chloro-N-[3,5-dichloro-4-(5-nitro-benzothiazol-2-yloxy)phenyl]-4-trifluoromethyl-benzenesulfonamide], 1000 to 10000 nM. In the case of `COc1cccc2sc(Oc3c(Cl)cc(NS(=O)(=O)c4ccc(Cl)cc4Cl)cc3Cl)nc12` [Compound 428, 2,4-Dichloro-N-[3,5-dichloro-4-(4-methoxy-benzothiazol-2-yloxy)-phenyl]-benzenesulfonamide] it was below 1000 nM; in that of `O=[N+]([O-])c1cc(C(F)(F)F)ccc1S(=O)(=O)Nc1cc(Cl)c(Oc2nc3ccc(Cl)cc3s2)c(Cl)c1` [Compound 435, N-[3,5-Dichloro-4-(6-chloro-benzothiazol-2-yloxy)-phenyl]-2-nitro-4-trifluoromethyl-benzenesulfonamide], below 1000 nM. Regarding `COc1cccc2sc(Oc3cc(Cl)cc(NS(=O)(=O)c4ccc(C(F)(F)F)cc4Cl)c3)nc12` [Compound 296, 2-Chloro-N-[3-chloro-5-(4-methoxy-benzothiazol-2-yloxy)-phenyl]-4-trifluoromethyl-benzenesulfonamide], the 50% inhibitory concentration (IC50) was 1000 to 10000 nM. In the case of `Cc1cc(S(=O)(=O)Nc2cc(F)c(Oc3cnc4ccccc4c3)c(Cl)c2)c(Cl)cc1Cl` [Compound 50, N-[3-Chloro-5-fluoro-4-(quinolin-3-yloxy)phenyl]-2,4-dichloro-5-methyl-benzenesulfonamide] it was below 1000 nM; in that of `Cc1cc(S(=O)(=O)Nc2cc(Cl)c(Cc3ccc4ccccc4n3)c(Cl)c2)c(Cl)cc1Cl` [Compound 226, 2,4-Dichloro-N-(3,5-dichloro-4-quinolin-2-ylmethyl-phenyl)-5-methyl-benzenesulfonamide], below 1000 nM. With `O=S(=O)(Nc1cc(Oc2nc3cc(Cl)ccc3s2)cc(Oc2nc3cc(Cl)ccc3s2)c1)c1ccc(Cl)cc1Cl` [Compound 323, N-[3,5-Bis-(5-chloro-benzothiazol-2-yloxy)-phenyl]-2,4-dichloro-benzenesulfonamide] the figure was 1000 to 10000 nM. With `COc1cccc2sc(Oc3c(Cl)cc(NS(=O)(=O)c4ccc(C(F)(F)F)cc4Cl)cc3Cl)nc12` [Compound 427, 2-Chloro-N-[3,5-dichloro-4-(4-methoxy-benzothiazol-2-yloxy)-phenyl]-4-trifluoromethyl-benzenesulfonamide] the figure was below 1000 nM; with `O=S(=O)(Nc1cc(Cl)c(Sc2cnc3ccccc3c2)c(Cl)c1)c1ccc(Cl)cc1Cl` [Compound 4.1], below 1000 nM. `Cc1ccc2nc(Oc3cc(Cl)cc(NS(=O)(=O)c4ccc(C(F)(F)F)cc4Cl)c3)sc2c1` [Compound 299, 2-Chloro-N-[3-chloro-5-(6-methyl-benzothiazol-2-yloxy)-phenyl]-4-trifluoromethyl-benzenesulfonamide] displayed an IC50 below 1000 nM. With `COc1cccc2sc(Oc3cc(Cl)cc(NS(=O)(=O)c4cc(C)c(Cl)cc4Cl)c3)nc12` [Compound 298, 2,4-Dichloro-N-[3-chloro-5-(4-methoxy-benzothiazol-2-yloxy)-phenyl]-5-methyl-benzenesulfonamide] the figure was below 1000 nM. In turn, `COc1ccc2nc(Oc3cc(Cl)cc(NS(=O)(=O)c4ccc(C(F)(F)F)cc4Cl)c3)sc2c1` [Compound 307, 2-Chloro-N-[3-chloro-5-(6-methoxy-benzothiazol-2-yloxy)-phenyl]-4-trifluoromethyl-benzenesulfonamide] returned an IC50 of 1000 to 10000 nM. On to `CCOC(=O)c1ccc2nc(Oc3cc(Cl)cc(NS(=O)(=O)c4ccc(C(F)(F)F)cc4Cl)c3)sc2c1` [Compound 311, 2-[3-Chloro-5-(2-chloro-4-trifluoromethyl-benzenesulfonylamino)-phenoxy]-benzothiazole-6-carboxylic acid ethyl ester], for which the 50% inhibitory concentration (IC50) was below 1000 nM. In the case of `O=S(=O)(Nc1ccc(Oc2nc3c(Cl)cccc3s2)c(Cl)c1)c1ccc(C(F)(F)F)cc1Cl` [Compound 503, 2-Chloro-N-[3-chloro-4-(4-chloro-benzothiazol-2-oxy)-phenyl]-4-trifluoromethylbenzenesulfonamide] it was 10000 to 30000 nM. In the case of `O=S(=O)(Nc1cc(Cl)cc(Cc2nc3cc(Cl)ccc3s2)c1)c1ccc(C(F)(F)F)cc1Cl` [Compound 331, 2-Chloro-N-[3-chloro-5-(5-chloro-benzothiazol-2-ylmethyl)-phenyl]-4-trifluoromethyl-benzenesulfonamide] it was below 1000 nM; in that of `N#Cc1ccc2sc(Oc3cc(Cl)cc(NS(=O)(=O)c4ccc(Cl)cc4Cl)c3)nc2c1` [Compound 287, 2,4-Dichloro-N-[3-chloro-5-(5-cyano-benzothiazol-2-yloxy)-phenyl]-benzenesulfonamide], below 1000 nM. For the compound `Cc1cccc2sc(Oc3cc(Cl)cc(NS(=O)(=O)c4ccc(C(F)(F)F)cc4Cl)c3)nc12` [Compound 293, 2-Chloro-N-[3-chloro-5-(4-methyl-benzothiazol-2-yloxy)-phenyl]-4-trifluoromethyl-benzenesulfonamide], the IC50 was below 1000 nM. `Cc1cc(S(=O)(=O)Nc2cc(Oc3nc4cc(Cl)ccc4s3)cc(Oc3nc4cc(Cl)ccc4s3)c2)c(Cl)cc1Cl` [Compound 324, N-[3,5-Bis-(5-chloro-benzothiazol-2-yloxy)-phenyl]-2,4-dichloro-5-methyl-benzenesulfonamide]: the IC50 is below 1000 nM. With `O=S(=O)(Nc1cc(Cl)c(Cc2cnc3ccccc3c2)c(Cl)c1)c1ccc(Cl)cc1Cl` [Compound 232, 2,4-Dichloro-N-(3,5-dichloro-4-quinolin-3-ylmethyl-phenyl)-benzenesulfonamide], the concentration for half-maximal inhibition (IC50) was below 1000 nM.
